Assays:
human KDR enzyme = biological target: T1, human KDR enzyme (Homo sapiens, UniProt P35968); experiment: phosphorylation of substrate by the KDR enzyme in vitro, scintillation technique; type: biochemical; conditions: read-out: KDR IC 50
T1 construct: The cytoplasmic domain of the human KDR enzyme was cloned in the form of a GST fusion; GST; made in house; host or cells: SF21 insect cells (baculovirus, pFastBac)
Protocol: The inhibitory effect of the compounds is determined in an assay for phosphorylation of substrate by the KDR enzyme in vitro using a scintillation technique (96-well plate, NEN).
The cytoplasmic domain of the human KDR enzyme was cloned in the form of a GST fusion into the baculovirus expression vector pFastBac. The protein was expressed in SF21 cells and purified to approximately 60% homogeneity.
The kinase activity of KDR is measured in 20 mM MOPS, 10 mM MgCl2, 10 mM MnCl2, 1 mM DTT, 2.5 mM EGTA, 10 mM β-glycerophosphate, pH=7.2, in the presence of 10 mM MgCl2, 100 μM Na3VO4, 1 mM NaF. 10 μl of the compound are added to 70 μl of kinase buffer containing 100 ng of KDR enzyme at 4° C. The reaction is initiated by adding 20 μl of solution containing 2 μg of substrate (SH2-SH3 fragment of PLCγ expressed in the form of a GST fusion protein), 2 μCi γ ^33P[ATP] and 2 μM cold ATP. After incubation at 37° C. for 1 hour, the reaction is stopped by adding 1 volume (100 μl) of 200 mM EDTA. The incubation buffer is removed and the wells are washed three times with 300 μl of PBS. The radioactivity is measured in each well using a Top Count NXT radioactivity counter (Packard).
The background noise is determined by measuring the radioactivity in four different wells containing the radioactive ATP and the substrate alone.
A control for total activity is measured in four different wells containing all the reactants (γ^33P-[ATP], KDR and PLCY substrate) but in the absence of compound.
The inhibition of the KDR activity with the compound of the invention is expressed as percentage inhibition of the control activity determined in the absence of compound.
The compound SU5614 (Calbiochem) (1 μM) is included in each plate as an inhibition control.

human Tie2 = biological target: T2, human Tie2 (Homo sapiens, UniProt Q02763); experiment: phosphorylation of PLC by Tie2 (GST-Tie2), FlashPlate; type: biochemical; conditions: read-out: TIE2 IC 50
T2 construct: corresponding to the intracellular domain amino acids 776-1124 was generated by PCR; made in house; host or cells: baculovirus expression vector pFastBacGT
T2 sequence (Q02763 776-1124): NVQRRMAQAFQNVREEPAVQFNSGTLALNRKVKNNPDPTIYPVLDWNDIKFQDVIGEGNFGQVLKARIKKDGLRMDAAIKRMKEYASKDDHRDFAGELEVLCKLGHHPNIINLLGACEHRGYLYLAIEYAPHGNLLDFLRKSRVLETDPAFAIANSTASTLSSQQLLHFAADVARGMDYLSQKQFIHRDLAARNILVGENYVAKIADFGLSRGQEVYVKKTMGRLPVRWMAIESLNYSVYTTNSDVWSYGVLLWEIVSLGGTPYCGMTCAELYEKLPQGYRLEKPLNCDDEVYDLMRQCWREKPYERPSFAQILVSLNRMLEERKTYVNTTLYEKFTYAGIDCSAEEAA
Protocol: The human Tie2 coding sequence corresponding to the intracellular domain amino acids 776-1124 was generated by PCR using the cDNA isolated from human placenta as a model. This sequence was introduced into a baculovirus expression vector pFastBacGT in the form of a GST fusion protein.
The inhibitory effect of the molecules is determined in an assay for phosphorylation of PLC by Tie2 in the presence of GST-Tie2 purified to approximately 80% homogeneity. The substrate is made up of the SH2-SH3 fragments of PLC expressed in the form of a GST fusion protein.
The kinase activity of Tie2 is measured in a 20 mM MOPS buffer, pH 7.2, containing 10 mM MgCl2, 10 mM MnCl2, 1 mM DTT and 10 mM of glycerophosphate. A reaction mixture made up to 70 μl of kinase buffer containing 100 ng of GST-Tie2 enzyme is deposited into each well of a 96-well FlashPlate kept on ice. 10 μl of the test molecule diluted in DMSO at a maximum concentration of 10% are then added. For a given concentration, each measurement is determined in quadruplicate. The reaction is initiated by adding 20 μl of solution containing 2 μg of GST-PLC, 2 μM of cold ATP and 1 μCi of ^33P [ATP]. After incubation at 37° C. for 1 hour, the reaction is stopped by adding 1 volume (100 μl) of 200 mM EDTA. After the incubation buffer has been removed, the wells are washed three times with 300 μl of PBS. The radioactivity is measured on a Wallac MicroBeta 1450.
The inhibition of the Tie2 activity is calculated and expressed as percentage inhibition with respect to the control activity determined in the absence of compound.

FAK = FAK (Homo sapiens, UniProt Q05397); experiment: FAK inhibition; type: biochemical
Chain of FAK (Q05397 whole entry, species assumed): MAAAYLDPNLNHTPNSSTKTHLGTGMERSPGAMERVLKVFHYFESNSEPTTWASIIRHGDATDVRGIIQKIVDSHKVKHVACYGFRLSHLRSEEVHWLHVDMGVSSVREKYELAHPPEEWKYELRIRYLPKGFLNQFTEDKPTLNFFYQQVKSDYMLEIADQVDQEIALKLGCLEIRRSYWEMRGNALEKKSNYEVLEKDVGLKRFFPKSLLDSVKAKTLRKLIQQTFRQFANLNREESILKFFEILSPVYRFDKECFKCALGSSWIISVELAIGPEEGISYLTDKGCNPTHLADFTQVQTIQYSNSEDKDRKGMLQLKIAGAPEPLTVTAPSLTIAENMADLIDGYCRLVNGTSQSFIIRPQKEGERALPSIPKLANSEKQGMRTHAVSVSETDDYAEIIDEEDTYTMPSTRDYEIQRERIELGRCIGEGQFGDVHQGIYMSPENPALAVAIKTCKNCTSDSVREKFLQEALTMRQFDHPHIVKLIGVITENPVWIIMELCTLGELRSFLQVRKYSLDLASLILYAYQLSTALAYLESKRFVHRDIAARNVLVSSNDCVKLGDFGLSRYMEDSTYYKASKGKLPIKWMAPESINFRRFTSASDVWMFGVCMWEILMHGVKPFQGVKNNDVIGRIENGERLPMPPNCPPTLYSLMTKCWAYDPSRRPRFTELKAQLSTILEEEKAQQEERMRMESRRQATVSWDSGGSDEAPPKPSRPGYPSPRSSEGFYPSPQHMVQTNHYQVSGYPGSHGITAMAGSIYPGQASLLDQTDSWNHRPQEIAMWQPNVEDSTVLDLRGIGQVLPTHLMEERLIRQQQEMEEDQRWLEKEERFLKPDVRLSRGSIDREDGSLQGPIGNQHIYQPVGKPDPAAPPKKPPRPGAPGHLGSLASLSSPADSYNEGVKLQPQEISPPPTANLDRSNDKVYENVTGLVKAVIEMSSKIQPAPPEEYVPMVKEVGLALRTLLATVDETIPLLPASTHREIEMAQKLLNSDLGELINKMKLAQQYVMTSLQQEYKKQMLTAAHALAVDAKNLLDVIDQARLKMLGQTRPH

T1 sequence (P35968 786-1356 limits assumed): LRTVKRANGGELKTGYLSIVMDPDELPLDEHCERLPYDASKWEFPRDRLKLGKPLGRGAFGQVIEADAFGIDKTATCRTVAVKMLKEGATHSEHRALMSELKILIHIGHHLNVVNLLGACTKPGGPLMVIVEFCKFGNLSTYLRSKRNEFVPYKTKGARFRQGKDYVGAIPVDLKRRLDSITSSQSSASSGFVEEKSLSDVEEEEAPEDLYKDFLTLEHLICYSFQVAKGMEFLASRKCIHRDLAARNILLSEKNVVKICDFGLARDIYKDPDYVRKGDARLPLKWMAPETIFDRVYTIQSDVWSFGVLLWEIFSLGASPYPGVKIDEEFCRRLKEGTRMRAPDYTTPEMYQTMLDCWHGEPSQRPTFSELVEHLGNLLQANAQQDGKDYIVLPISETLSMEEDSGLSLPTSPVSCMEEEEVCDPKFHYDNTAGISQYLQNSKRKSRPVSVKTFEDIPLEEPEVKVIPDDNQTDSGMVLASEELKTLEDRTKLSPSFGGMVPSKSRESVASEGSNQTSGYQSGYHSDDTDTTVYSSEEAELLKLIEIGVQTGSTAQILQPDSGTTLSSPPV

Structure (SMILES)	IC50 (human KDR enzyme) [nM]	IC50 (human Tie2) [nM]	melting point [°C]	IC50 (FAK) [nM]
NC(=O)c1[nH]c2ccccc2c1-c1ccc(NC(=O)Nc2cccc(C(F)(F)F)c2)cc1 [Example 5, 3-[4-(3-Trifluoromethylphenylureido)phenyl]-1H-indole-2-carboxamide]	50	6	156 to 158	
NC(=O)c1[nH]c2ccccc2c1-c1ccc(NC(=O)Nc2ccccc2F)cc1 [Example 7, 3-[4-(2-Fluorophenylureido)phenyl]-1H-indole-2-carboxamide]	1750	142	146 to 148	
Cn1c(C(N)=O)c(-c2ccc(NC(=O)Nc3cc(C(F)(F)F)ccc3F)cc2)c2ccccc21 [Example 8, 3-{4-[3-(2-Fluoro-5-trifluoromethylphenyl)-ureido]phenyl}-1-methyl-1H-indole-2-carboxamide]	260	27	> 260	
NC(=O)c1[nH]c2ccccc2c1-c1ccc(NC(=O)Nc2ccc(OC(F)(F)F)cc2)cc1 [Example 11, 3-{4-[3-(4-Trifluoromethoxyphenyl)ureido]-phenyl}-1H-indole-2-carboxamide]	153	105	162 to 164	
COc1ccc(C(F)(F)F)cc1NC(=O)Nc1ccc(-c2c(C(N)=O)[nH]c3ccccc23)cc1 [Example 12, 3-{4-[3-(2-Methoxy-5-trifluoromethylphenyl)ureido]phenyl}-1H-indole-2-carboxamide]			178 to 180	
NC(=O)c1[nH]c2ccccc2c1-c1ccc(NS(=O)(=O)c2cc(C(F)(F)F)ccc2F)cc1 [Example 13, 3-[4-(2-Fluoro-5-trifluoromethylbenzenesulfonylamino)phenyl]-1H-indole-2-carboxamide]			176 to 178	
NC(=O)c1[nH]c2ccccc2c1-c1ccc(NS(=O)(=O)c2cccc(Cl)c2Cl)cc1 [Example 14, 3-[4-(2,3-Dichlorobenzenesulfonylamino)-phenyl]-1H-indole-2-carboxamide]			> 260	
Cc1ccc(F)c(NC(=O)Nc2ccc(-c3c(C(N)=O)[nH]c4ccccc34)cc2)c1 [Example 16]			220	
NC(=O)c1[nH]c2ccccc2c1-c1ccc(NC(=O)Nc2cc(C(F)(F)F)ccc2CN2CCCC2)cc1 [Example 19, 3-{4-[3-(2-Pyrrolidin-1-ylmethyl-5-trifluoromethylphenyl)ureido]phenyl}-1H-indole-2-carboxamide]	1890	220		
COCCOc1ccc2c(-c3ccc(NC(=O)Nc4cc(C(F)(F)F)ccc4F)cc3)c(C(N)=O)[nH]c2c1 [Example 23, 3-{4-[3-(2-Fluoro-5-trifluoromethylphenyl)-ureido]phenyl}-6-(2-methoxyethoxy)-1H-indole-2-carboxamide]	90	7		
CN(C)CC(=O)Nc1cccc2c(-c3ccc(NC(=O)Nc4cc(C(F)(F)F)ccc4F)cc3)c(C(N)=O)[nH]c12 [Example 32, 7-(2-Dimethylaminoacetylamino)-3-{4-[3-(2-fluoro-5-trifluoromethylphenyl)ureido]phenyl}-1H-indole-2-carboxamide]	144	28		

More lines, now with the values ahead:

IC50 (human KDR enzyme) [nM]	IC50 (human Tie2) [nM]	melting point [°C]	IC50 (FAK) [nM]	Structure (SMILES)
35	3	240 to 242		NC(=O)c1[nH]c2ccccc2c1-c1ccc(NC(=O)Nc2cc(C(F)(F)F)ccc2F)cc1 [Example 1, 3-{4-[3-(2-Fluoro-5-trifluoromethylphenyl)-ureido]phenyl}-1H-indole-2-carboxamide]
12	4	206 to 208		NC(=O)c1[nH]c2cccnc2c1-c1ccc(NC(=O)Nc2cc(C(F)(F)F)ccc2F)cc1 [Example 2, 3-{4-[3-(2-Fluoro-5-trifluoromethylphenyl)-ureido]phenyl}-1H-pyrrolo[3,2-b]pyridine-2-carboxamide]
1520	296	232 to 234		NC(=O)c1[nH]c2ccccc2c1-c1ccc(NC(=O)Nc2ccccc2)cc1 [Example 3, 3-[4-(3-Phenylureido)phenyl]-1H-indole-2-carboxamide]
181	19	140 to 142		Cc1cccc(NC(=O)Nc2ccc(-c3c(C(N)=O)[nH]c4ccccc34)cc2)c1 [Example 4, 3-[4-(3-m-Tolylureido)phenyl]-1H-indole-2-carboxamide]
47	16	168 to 170		Cc1cc(C)cc(NC(=O)Nc2ccc(-c3c(C(N)=O)[nH]c4ccccc34)cc2)c1 [Example 6, 3-[4-(3,5-Dimethylphenylureido)phenyl]-1H-indole-2-carboxamide]
138	17	168 to 170		NC(=O)c1[nH]c2ccccc2c1-c1ccc(NC(=O)Nc2ccc(C(F)(F)F)c(Cl)c2)cc1 [Example 9, 3-{4-[3-(3-Chloro-4-trifluoromethylphenyl)-ureido]phenyl}-1H-indole-2-carboxamide]
37	3	176 to 178	303	CC(C)(C)c1cc(NC(=O)Nc2ccc(-c3c(C(N)=O)[nH]c4ccccc34)cc2)no1 [Example 10, 3-{4-[3-(5-tert-butylisoxazol-3-yl)ureido]-phenyl}-1H-indole-2-carboxamide]
		> 260		Cc1ccc(-n2nc(C(C)(C)C)cc2NC(=O)Nc2ccc(-c3c(C(N)=O)[nH]c4ccccc34)cc2)cc1 [Example 15, 3-{4-[3-(5-tert-Butyl-2-p-tolyl-2H-pyrazol-3-yl)ureido]phenyl}-1H-indole-2-carboxamide]
234	59			COCc1ccc(C(F)(F)F)cc1NC(=O)Nc1ccc(-c2c(C(N)=O)[nH]c3ccccc23)cc1 [Example 20, 3-{4-[3-(2-Methoxymethyl-5-trifluoromethylphenyl)ureido]phenyl}-1H-indole-2-carboxamide]
195	32			NC(=O)c1[nH]c2ccc[n+]([O-])c2c1-c1ccc(NC(=O)Nc2cc(C(F)(F)F)ccc2F)cc1 [Example 21, 3-{4-[3-(2-Fluoro-5-trifluoromethylphenyl)-ureido]phenyl}-4-oxy-1H-pyrrolo[3,2-b]pyridine-2-carboxamide]
31	7			NC(=O)c1[nH]c2c(N)cccc2c1-c1ccc(NC(=O)Nc2cc(C(F)(F)F)ccc2F)cc1 [Example 30, 7-Amino-3-{4-[3-(2-fluoro-5-trifluoromethylphenyl)ureido]phenyl}-1H-indole-2-carboxamide]
75	6			NC(=O)c1[nH]c2c(NCCO)cccc2c1-c1ccc(NC(=O)Nc2cc(C(F)(F)F)ccc2F)cc1 [Example 31, 3-{4-[3-(2-Fluoro-5-trifluoromethylphenyl)-ureido]phenyl}-7-(2-hydroxyethylamino)-1H-indole-2-carboxamide]
199	291			NC(=O)c1[nH]c2ccccc2c1-c1ccc(NC(=O)Nc2ccc(OC(F)F)cc2)cc1 [Example 37, 3-{4-[3-(4-Difluoromethoxy-phenyl)ureido]phenyl}-1H-indole-2-carboxamide]
153	151			CC(C)c1ccc(NC(=O)Nc2ccc(-c3c(C(N)=O)[nH]c4ccccc34)cc2)cc1 [Example 53, 3-{4-[3-(4-Isopropyl-phenyl)ureido]phenyl}-1H-indole-2-carboxamide]
